Measurements published in patent US5840684A, “Glycopeptide antibiotic derivatives” (Eli Lilly and Company, priority 1995, dated 1998).
≈ marks a conversion by molar mass, not a printed value.

Experiments:
[1] = system: vancomycin-susceptible enterococci; experiment: broth micro-dilution, mean geometric MIC; format: cell-based, Enterococcus faecium and Enterococcus faecalis; conditions: enterococci, 24-hour incubation
[2] = system: Pediococcus acidilacti; experiment: agar dilution MIC, lactic acid bacteria; format: cell-based; conditions: Pediococcus acidilacti (mean of 10), brain-heart infusion agar
[3] = system: Leuconostoc lactis; experiment: agar dilution MIC, lactic acid bacteria; format: cell-based; conditions: Leuconostoc lactis (mean of 2), brain-heart infusion agar
[4] = system: Streptococcus pneumoniae; experiment: mouse protection, experimentally-induced infection; format: in vivo; conditions: mice infected with Streptococcus pneumoniae, two doses
[5] = system: Pediococcus pentosaceus; experiment: agar dilution MIC, lactic acid bacteria; format: cell-based; conditions: Pediococcus pentosaceus (mean of 2), brain-heart infusion agar
[6] = system: Leuconostoc citreum; experiment: agar dilution MIC, lactic acid bacteria; format: cell-based; conditions: brain-heart infusion agar
[7] = system: Staphylococcus aureus X778; experiment: broth micro-dilution MIC; format: cell-based
Experimental: (§1) The MIC's were determined using a standard broth micro-dilution assay.

[8] = system: Staphylococcus aureus X400; experiment: broth micro-dilution MIC; format: cell-based
Experimental: as §1

[9] = system: Staphylococcus aureus SA1199A; experiment: broth micro-dilution MIC; format: cell-based
Experimental: as §1

[10] = system: Staphylococcus aureus SA1199; experiment: broth micro-dilution MIC; format: cell-based
Experimental: as §1

[11] = system: Staphylococcus aureus 446; experiment: broth micro-dilution MIC; format: cell-based
Experimental: as §1

[12] = system: Entercoccus faecium 180-1; experiment: broth micro-dilution MIC; format: cell-based
Experimental: as §1

[13] = system: Entercoccus faecium 276; experiment: broth micro-dilution MIC; format: cell-based
Experimental: as §1

[14] = system: Staphylococcus aureus 447; experiment: broth micro-dilution MIC; format: cell-based
Experimental: as §1

[15] = system: Staphylococcus aureus 491; experiment: broth micro-dilution MIC; format: cell-based
Experimental: as §1

[16] = system: Streptococcus pyogenes C203; experiment: broth micro-dilution MIC; format: cell-based
Experimental: as §1

[17] = system: Staphylococcus aureus 489; experiment: broth micro-dilution MIC; format: cell-based
Experimental: as §1

[18] = system: Staphylococcus haemolyticus 105; experiment: broth micro-dilution MIC; format: cell-based
Experimental: (§2) The formula I compounds have in vitro and in vivo activity against Gram-positive pathogenic bacteria. The MIC's were determined using a standard broth micro-dilution assay.

[19] = system: Entercoccus faecium 2041; experiment: broth micro-dilution MIC; format: cell-based; conditions: Entercoccus faecium 2041
Experimental: as §2

[20] = system: Enterococcus gallinarum 245; experiment: broth micro-dilution MIC; format: cell-based; conditions: Enterococcus gallinarum 245
Experimental: as §2

[21] = system: Staphylococcus haemolyticus 415; experiment: broth micro-dilution MIC; format: cell-based
Experimental: as §2

[22] = system: Entercoccus faecium 180; experiment: broth micro-dilution MIC; format: cell-based; conditions: Entercoccus faecium 180
Experimental: as §2

[23] = system: Streptococcus pneumoniae P1; experiment: broth micro-dilution MIC; format: cell-based
Experimental: as §2

[24] = system: Staphylococcus aureus S13E; format: cell-based
Experimental: as §1

[25] = system: Stapylococcus aureus; experiment: mouse protection, experimentally-induced infection; format: in vivo; conditions: mice infected with Stapylococcus aureus, two doses
[26] = system: vancomycin-resistant enterococci; experiment: broth micro-dilution, mean geometric MIC; format: cell-based, Enterococcus faecium and Enterococcus faecalis; conditions: enterococci, 24-hour incubation
[27] = system: Streptococcus pyogenes; experiment: mouse protection, experimentally-induced infection; format: in vivo; conditions: mice infected with Streptococcus pyogenes, two doses
[28] = system: Leuconostoc pseudomesenteroides; experiment: agar dilution MIC, lactic acid bacteria; format: cell-based; conditions: brain-heart infusion agar
[29] = system: Leuconostoc mesenteroides; experiment: agar dilution MIC, lactic acid bacteria; format: cell-based; conditions: Leuconostoc mesenteroides (mean of 4), brain-heart infusion agar
[30] = system: Lactobacillus confusus; experiment: agar dilution MIC, lactic acid bacteria; format: cell-based; conditions: Lactobacillus confusus, brain-heart infusion agar
[31] = system: Staphylococcus epidermidis 270; experiment: broth micro-dilution MIC; format: cell-based
Experimental: as §2

[32] = system: Staphylococcus aureus SA1199B; format: cell-based
Experimental: as §1

Compound | mean geometric MIC, Vancomycin Sensitive Strains [1] [µg/mL] | MIC [2] [µg/mL] | MIC [3] [µg/mL] | ED50 [4] [mg/kg/2] | MIC [5] [µg/mL] | MIC [8] [µg/mL] | MIC [9] [µg/mL] | MIC [10] [µg/mL] | MIC [12] [µg/mL] | MIC [13] [µg/mL] | MIC [14] [µg/mL] | MIC [16] [µg/mL] | MIC [18] [µg/mL] | MIC [19] [µg/mL] | MIC [20] [µg/mL] | MIC [21] [µg/mL] | MIC [23] [µg/mL] | MIC [24] [µg/mL] | mean geometric MIC, Vancomycin Resistant Strains [26] [µg/mL] | ED50 [27] [mg/kg/2] | further results
CNC(CC(C)C)C(=O)NC1C(=O)NC(CC(N)=O)C(=O)NC2C(=O)NC3C(=O)NC(C(=O)NC(C(=O)O)c4cc(O)cc(O)c4-c4cc3ccc4O)C(OC3CC(C)(N)C(O)C(C)O3)c3ccc(c(Cl)c3)Oc3cc2cc(c3OC2OC(CO)C(O)C(O)C2OC2CC(C)(NCc3ccc4ccccc4c3)C(O)C(C)O2)Oc2ccc(cc2Cl)C1O (stereo not shown) [Compound 1] | 0.0061 | 18 (≈ 10.4 µM) | 23 (≈ 13.3 µM) | 0.025 | 23 (≈ 13.3 µM) | ≤ 0.06 | ≤ 0.06 | ≤ 0.06 | ≤ 0.06 | ≤ 0.06 | ≤ 0.06 | ≤ 0.06 | 4 (≈ 2.31 µM) | 0.125 (≈ 0.0721 µM) | 4 (≈ 2.31 µM) | 4 (≈ 2.31 µM) | ≤ 0.06 | 0.125 (≈ 0.0721 µM) | 0.25 | 0.052 | MIC [6]: > 128 µg/mL; MIC [7]: 0.125 µg/mL (≈ 0.0721 µM); MIC [11]: ≤ 0.06 µg/mL; MIC [15]: 2 µg/mL (≈ 1.15 µM); MIC [17]: ≤ 0.06 µg/mL; MIC [22]: 0.5 µg/mL (≈ 0.289 µM); ED50 [25]: 0.086 mg/kg/2; MIC [28]: > 128 µg/mL
CNC(CC(C)C)C(=O)NC1C(=O)NC(CC(N)=O)C(=O)NC2C(=O)NC3C(=O)NC(C(=O)NC(C(=O)O)c4cc(O)cc(O)c4-c4cc3ccc4O)C(OC3CC(C)(N)C(O)C(C)O3)c3ccc(c(Cl)c3)Oc3cc2cc(c3OC2OC(CO)C(O)C(O)C2OC2CC(C)(NCc3ccc(-c4ccccc4)cc3)C(O)C(C)O2)Oc2ccc(cc2Cl)C1O (stereo not shown) [Compound 2, p-phenylbenzyl·A82846B] | 0.00038 | 5.9 (≈ 3.35 µM) | 4.0 (≈ 2.27 µM) | 0.025 | 11 (≈ 6.25 µM) | 1 (≈ 0.569 µM) | ≤ 0.06 | 0.5 (≈ 0.284 µM) | ≤ 0.06 | 0.5 (≈ 0.284 µM) | ≤ 0.06 | ≤ 0.06 | 2 (≈ 1.14 µM) | 0.125 (≈ 0.0711 µM) | ≤ 0.06 | 1 (≈ 0.569 µM) | ≤ 0.06 | ≤ 0.06 | 0.044 | 0.014 | MIC [29]: 16 µg/mL (≈ 9.1 µM); MIC [30]: 16 µg/mL (≈ 9.1 µM); MIC [7]: ≤ 0.06 µg/mL; MIC [11]: ≤ 0.06 µg/mL; MIC [15]: ≤ 0.06 µg/mL; MIC [31]: 8 µg/mL (≈ 4.55 µM); MIC [32]: ≤ 0.06 µg/mL; ED50 [25]: 0.27 mg/kg/2; MIC [28]: 32 µg/mL (≈ 18.2 µM)
CNC(CC(C)C)C(=O)NC1C(=O)NC(CC(N)=O)C(=O)NC2C(=O)NC3C(=O)NC(C(=O)NC(C(=O)O)c4cc(O)cc(O)c4-c4cc3ccc4O)C(OC3CC(C)(N)C(O)C(C)O3)c3ccc(c(Cl)c3)Oc3cc2cc(c3OC2OC(CO)C(O)C(O)C2OC2CC(C)(NCc3ccc(OC(F)(F)F)cc3)C(O)C(C)O2)Oc2ccc(cc2Cl)C1O (stereo not shown) [Compound 6] | 0.14 | 4.3 (≈ 2.43 µM) | 8.0 (≈ 4.53 µM) | 0.021 | 8.0 (≈ 4.53 µM) |  | ≤ 0.06 |  | ≤ 0.06 | ≤ 0.06 | 0.5 (≈ 0.283 µM) | ≤ 0.06 | 0.5 (≈ 0.283 µM) | ≤ 0.06 | ≤ 0.06 | 0.5 (≈ 0.283 µM) | ≤ 0.06 |  | 1.2 | 0.013 | MIC [29]: 9.5 µg/mL (≈ 5.38 µM); MIC [30]: 16 µg/mL (≈ 9.06 µM); MIC [11]: 0.5 µg/mL (≈ 0.283 µM); ED50 [25]: 0.15 mg/kg/2; MIC [28]: 16 µg/mL (≈ 9.06 µM)
CNC(CC(C)C)C(=O)NC1C(=O)NC(CC(N)=O)C(=O)NC2C(=O)NC3C(=O)NC(C(=O)NC(C(=O)O)c4cc(O)cc(O)c4-c4cc3ccc4O)C(OC3CC(C)(N)C(O)C(C)O3)c3ccc(c(Cl)c3)Oc3cc2cc(c3OC2OC(CO)C(O)C(O)C2OC2CC(C)(NCc3cccc4c3oc3ccccc34)C(O)C(C)O2)Oc2ccc(cc2Cl)C1O (stereo not shown) [Compound 39] | 0.09 | 26 (≈ 14.7 µM) | 32 (≈ 18.1 µM) | < 0.031 | 32 (≈ 18.1 µM) | ≤ 0.06 |  | ≤ 0.06 | ≤ 0.06 | ≤ 0.06 |  | ≤ 0.06 | 2 (≈ 1.13 µM) | ≤ 0.06 | ≤ 0.06 | 4 (≈ 2.26 µM) | ≤ 0.06 | ≤ 0.06 | 1.2 | 0.045 | MIC [29]: 32 µg/mL (≈ 18.1 µM); MIC [30]: 32 µg/mL (≈ 18.1 µM); MIC [7]: ≤ 0.06 µg/mL; MIC [22]: 0.5 µg/mL (≈ 0.282 µM); MIC [32]: ≤ 0.06 µg/mL; ED50 [25]: 0.1 mg/kg/2
CNC(CC(C)C)C(=O)NC1C(=O)NC(CC(N)=O)C(=O)NC2C(=O)NC3C(=O)NC(C(=O)NC(C(=O)O)c4cc(O)cc(O)c4-c4cc3ccc4O)C(OC3CC(C)(N)C(O)C(C)O3)c3ccc(c(Cl)c3)Oc3cc2cc(c3OC2OC(CO)C(O)C(O)C2OC2CC(C)(NCc3cc(OCc4ccccc4)ccc3OC)C(O)C(C)O2)Oc2ccc(cc2Cl)C1O (stereo not shown) [Compound 51] | 0.22 | 87 (≈ 47.8 µM) |  | 0.036 | 91 (≈ 50 µM) | ≤ 0.06 | ≤ 0.06 | 0.5 (≈ 0.275 µM) | ≤ 0.06 | ≤ 0.06 | 0.5 (≈ 0.275 µM) |  | 0.5 (≈ 0.275 µM) | ≤ 0.06 |  | 1 (≈ 0.55 µM) | ≤ 0.06 | 0.5 (≈ 0.275 µM) | 0.84 | 0.057 | MIC [29]: 76 µg/mL (≈ 41.8 µM); MIC [6]: > 128 µg/mL; MIC [7]: 0.5 µg/mL (≈ 0.275 µM); MIC [17]: ≤ 0.06 µg/mL; MIC [31]: 0.5 µg/mL (≈ 0.275 µM); MIC [22]: 0.5 µg/mL (≈ 0.275 µM); MIC [32]: 1 µg/mL (≈ 0.55 µM); ED50 [25]: 0.16 mg/kg/2; MIC [28]: > 128 µg/mL
CNC(CC(C)C)C(=O)NC1C(=O)NC(CC(N)=O)C(=O)NC2C(=O)NC3C(=O)NC(C(=O)NC(C(=O)O)c4cc(O)cc(O)c4-c4cc3ccc4O)C(OC3CC(C)(N)C(O)C(C)O3)c3ccc(c(Cl)c3)Oc3cc2cc(c3OC2OC(CO)C(O)C(O)C2OC2CC(C)(NCc3ccc(Sc4ccccc4)cc3)C(O)C(C)O2)Oc2ccc(cc2Cl)C1O (stereo not shown) [Compound 108] | 0.04 | 12 (≈ 6.7 µM) | 8.0 (≈ 4.47 µM) | 0.041 | 23 (≈ 12.8 µM) | 2 (≈ 1.12 µM) | ≤ 0.06 | 2 (≈ 1.12 µM) | ≤ 0.06 | 0.5 (≈ 0.279 µM) | 0.5 (≈ 0.279 µM) | ≤ 0.06 | 2 (≈ 1.12 µM) | ≤ 0.06 | ≤ 0.06 | 1 (≈ 0.558 µM) | ≤ 0.06 | 1 (≈ 0.558 µM) | 0.84 | 0.046 | MIC [29]: 10 µg/mL (≈ 5.58 µM); MIC [30]: 16 µg/mL (≈ 8.93 µM); MIC [11]: 2 µg/mL (≈ 1.12 µM); MIC [32]: 2 µg/mL (≈ 1.12 µM); MIC [28]: 32 µg/mL (≈ 17.9 µM)
